Assay results: patent US20260070945A1, “MACROCYCLIC IMMUNOMODULATORS” (Bristol-Myers Squibb Company, priority 2022, published 2026)
Where a SMILES comes first, the peptide text is derived from it. Bridges are numbered along the chain shown (N, C = ends). [ ]: non-standard residue; d: D form. The star is where a group is joined. ξ: configuration not given here. Phe(4-COOH) = N[C@@H](Cc1ccc(C(=O)O)cc1)C(=O)O; Bip = N[C@@H](Cc1ccc(-c2ccccc2)cc1)C(=O)O; Phe(3-Me) = Cc1cccc(C[C@H](N)C(=O)O)c1; Phe(4-F) = N[C@@H](Cc1ccc(F)cc1)C(=O)O; Val(3-OH) = CC(C)(O)[C@H](N)C(=O)O; Cha = N[C@@H](CC1CCCCC1)C(=O)O; Thr(3ξ) = CC(O)[C@H](N)C(=O)O; Carboxymethyl = O=C(O)C*; NMeA = CN[C@@H](C)C(=O)O; Nle = CCCC[C@H](N)C(=O)O; Aun = NCCCCCCCCCCC(=O)O; Dab = NCC[C@H](N)C(=O)O; AEEA = NCCOCCOCC(=O)O

Biological target: T1, PD-1/PD-L1 interaction (PE-labeled human PD-L1-Ig binding to Jurkat cell line over-expressing human PD-1) (Homo sapiens, UniProt Q15116)
T1 construct: expressed in transfected cells; host or cells: Jurkat
Experiment: Jurkat-PD-1 Cell Binding High-Content Screening Assay (CBA)
Conditions: PE-labeled PD-L1-Ig 20 nM final, Jurkat-hPD-1 cells; read-out: Jurkat HPD1 PDL1 IC50
In short: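 Read-out: high-content imaging of cell-bound PE fluorescence, with Hoechst 33342 nuclear counterstain after paraformaldehyde fixation. Before labeled ligand (20 nM final, 1 h) was added, compound sat on the cells for 2 h at 37 °C in DMEM/10% FCS.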

T1 sequence (Q15116 25-288): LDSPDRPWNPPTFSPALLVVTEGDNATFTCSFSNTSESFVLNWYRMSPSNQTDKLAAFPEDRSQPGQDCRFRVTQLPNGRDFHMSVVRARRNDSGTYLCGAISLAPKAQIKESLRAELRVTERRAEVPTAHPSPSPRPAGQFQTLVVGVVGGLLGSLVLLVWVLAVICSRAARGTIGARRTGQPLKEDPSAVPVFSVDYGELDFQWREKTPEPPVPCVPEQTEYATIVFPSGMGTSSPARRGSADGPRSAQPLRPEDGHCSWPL

| Compound | IC50 [nM] |
| --- | --- |
| Cc1cccc(C[C@@H]2NC(=O)[C@H](CC(=O)O)NC(=O)[C@H](Cc3ccc(C(=O)O)cc3)NC(=O)[C@H](C(C)O)NC(=O)CSC[C@@H](C(=O)N[C@@H](CCN)C(=O)NCCOCCOCC(=O)NCCCCCCCCCCC(=O)O)NC(=O)[C@H](CCC(=O)O)NC(=O)[C@H](C(C)C)NC(=O)[C@H](CC3CCCCC3)NC(=O)[C@H](CCN)NC(=O)[C@@H](CC(C)C)NC(=O)[C@H](C)N(C)C(=O)[C@H](Cc3ccc(C(=O)O)cc3)NC(=O)[C@H](Cc3ccc(-c4ccccc4)cc3)NC(=O)[C@H](Cc3ccc(C(=O)O)cc3)NC2=O)c1 (stereo partly drawn) [Example 2547] ({CH2CO}-[Thr(3ξ)][Phe(4-COOH)]D[Phe(3-Me)][Phe(4-COOH)][Bip][Phe(4-COOH)][NMeA][dL][Dab][Cha]VEC[Dab][AEEA][Aun]-OH; thioether N-14) | 14.9 |
| Cc1cccc(C[C@@H]2NC(=O)[C@H](CC(=O)O)NC(=O)[C@H](Cc3ccc(C(=O)O)cc3)NC(=O)[C@H](Cc3ccc(F)cc3)NC(=O)CSC[C@@H](C(=O)N[C@@H](CCN)C(=O)NCCOCCOCC(=O)NCCCCCCCCCCC(=O)O)NC(=O)[C@H](CCC(=O)O)NC(=O)[C@H](C(C)C)NC(=O)[C@H](CC3CCCCC3)NC(=O)[C@H](CCN)NC(=O)[C@@H](CC(C)C)NC(=O)[C@H](C)N(C)C(=O)[C@H](Cc3ccc(C(=O)O)cc3)NC(=O)[C@H](Cc3ccc(-c4ccccc4)cc3)NC(=O)[C@H](Cc3ccc(C(=O)O)cc3)NC2=O)c1 [Example 2548] ({CH2CO}-[Phe(4-F)][Phe(4-COOH)]D[Phe(3-Me)][Phe(4-COOH)][Bip][Phe(4-COOH)][NMeA][dL][Dab][Cha]VEC[Dab][AEEA][Aun]-OH; thioether N-14) | 19.6 |
| CCCC[C@@H]1NC(=O)CSC[C@@H](C(=O)N[C@@H](CCN)C(=O)NCCOCCOCC(=O)NCCCCCCCCCCC(=O)O)NC(=O)[C@H](CCC(=O)O)NC(=O)[C@H](C(C)C)NC(=O)[C@H](CC2CCCCC2)NC(=O)[C@H](CCN)NC(=O)[C@@H](CC(C)C)NC(=O)[C@H](C)N(C)C(=O)[C@H](Cc2ccc(C(=O)O)cc2)NC(=O)[C@H](Cc2ccc(-c3ccccc3)cc2)NC(=O)[C@H](Cc2ccc(C(=O)O)cc2)NC(=O)[C@H](Cc2cccc(C)c2)NC(=O)[C@H](CC(=O)O)NC(=O)[C@H](Cc2ccc(C(=O)O)cc2)NC1=O [Example 2549] ({CH2CO}-[Nle][Phe(4-COOH)]D[Phe(3-Me)][Phe(4-COOH)][Bip][Phe(4-COOH)][NMeA][dL][Dab][Cha]VEC[Dab][AEEA][Aun]-OH; thioether N-14) | 5.4 |
| Cc1cccc(C[C@@H]2NC(=O)[C@H](CC(=O)O)NC(=O)[C@H](Cc3ccc(C(=O)O)cc3)NC(=O)[C@H](CCN)NC(=O)CSC[C@@H](C(=O)N[C@@H](CCN)C(=O)NCCOCCOCC(=O)NCCCCCCCCCCC(=O)O)NC(=O)[C@H](Cc3cnc[nH]3)NC(=O)[C@H](C(C)O)NC(=O)[C@H](CC3CCCCC3)NC(=O)[C@H](CCN)NC(=O)[C@@H](CC(C)C)NC(=O)[C@H](C)N(C)C(=O)[C@H](Cc3ccc(C(=O)O)cc3)NC(=O)[C@H](Cc3ccc(-c4ccccc4)cc3)NC(=O)[C@H](Cc3ccc(C(=O)O)cc3)NC2=O)c1 (stereo partly drawn) [Example 2550] ({CH2CO}-[Dab][Phe(4-COOH)]D[Phe(3-Me)][Phe(4-COOH)][Bip][Phe(4-COOH)][NMeA][dL][Dab][Cha][Thr(3ξ)]HC[Dab][AEEA][Aun]-OH; thioether N-14) | 2.8 |
| Cc1cccc(C[C@@H]2NC(=O)[C@H](CC(=O)O)NC(=O)[C@H](Cc3ccc(OCC(=O)O)cc3)NC(=O)[C@H](CCN)NC(=O)CSC[C@@H](C(=O)N[C@@H](CCN)C(=O)NCCOCCOCC(=O)NCCCCCCCCCCC(=O)O)NC(=O)[C@H](Cc3cnc[nH]3)NC(=O)[C@H](C(C)(C)O)NC(=O)[C@H](CC3CCCCC3)NC(=O)[C@H](CCN)NC(=O)[C@@H](CC(C)C)NC(=O)[C@H](C)N(C)C(=O)[C@H](Cc3ccc(OCC(=O)O)cc3)NC(=O)[C@H](Cc3ccc(-c4ccccc4)cc3)NC(=O)[C@H](Cc3ccc(OCC(=O)O)cc3)NC2=O)c1 [Example 2551] ({CH2CO}-[Dab]Y(Carboxymethyl)D[Phe(3-Me)]Y(Carboxymethyl)[Bip]Y(Carboxymethyl)[NMeA][dL][Dab][Cha][Val(3-OH)]HC[Dab][AEEA][Aun]-OH; thioether N-14) | 17.5 |
